The values below come from patent US20190247405A1, “TREATMENT OF SMA” (Hoffmann-La Roche Inc., priority 2016, published 2019).

“Also recorded” adds a separate entry of the source.

Data set [1] concerns patients aged 3-25 years with type 2 or non-ambulatory type 3 SMA. In words: Randomized, double-blind, placebo-controlled Phase 2 study (NCT01302600) of olesoxime. The format is in vivo, human. Particulars: 100 mg/ml oral liquid suspension, 10 mg/kg per day. On the procedure:
A randomized double blind, placebo-controlled, phase 2 study on olesoxime (NTC01302600) was performed on SMA type II and type III patients aged 3 to 25 years.
A randomized, double-blind, placebo-controlled, Phase 2 study (NCT01302600) was performed in 22 secondary care centres in Belgium, France, Germany, Italy, Netherlands, Poland and the UK. Safety and efficacy of olesoxime (TRO19622/RG6083) were assessed in patients aged 3-25 years with type 2 or non-ambulatory type 3 SMA confirmed by weakness and hypotonia, genetic diagnosis, Motor Function Measure (MFM) domains 1 and 2 (D1+D2) relative score (percentage of the maximum sum)≥15% and Hammersmith Functional Motor Scale (HFMS) score at baseline≥3 (non-ambulant≤38). […]
MFM is a validated quantitative scale allowing measurement of the functional motor abilities of an individual affected by a neuromuscular disease, regardless of the diagnosis and the extent of motor deficiencies (Vuillerot et al. Arch Phys Med Rehabil 2013; 94(8): 1555-61). […] Each item is scored on a 4-point (0-3) Likert type scale, where each option contains a clear indication of the level to which the patient has achieved the functional task and higher scores reflect better functional ability. […]
A total score, in addition to the three dimensions, can be calculated, with all scores expressed as a percentage of the maximum possible sum of the item scores. […]

For data set [2], the system named is MFM D1+D2 score in SMA patients. Description: Longitudinal kinetic-pharmacodynamic (KPD) exposure-response analysis and simulations on Phase 2 PK and MFM D1+D2 data. Also on record: species or system human. From the text:
The pharmacokinetics (PK) and efficacy data from the herewith referred clinical trial study were used to investigate the relationship between olesoxime pharmacokinetic exposure (i.e., average trough concentration Caverage) and the primary efficacy outcome (i.e.: MFM D1+D2 score). A longitudinal kinetic-pharmacodynamic (KPD) approach was applied [Jacqmin et al., 2007]. In the placebo group the progression of the disease over time was best described by a linear function (slope of −0.0201 unit/week with relative standard error of 27%). […] (Data on file).
Simulations were conducted by using this exposure-response function and its associated uncertainty.

In data set [3] the test system is SMNF7/F7; NSE-Cre mice (SMA transgenic mice). Description: Survival and body weight in transgenic mouse model of SMA. The format is in vivo. Particulars: for mice still alive at 40 days: Conclusion section (vehicle 15%); for animals still alive after 40 days: Results section (vehicle 15%). The text has this: Deletion of the smn gene is lethal in mice (early embryonic lethality). Mutant mice with deletion of smn exon7 restricted to neurons (NSE-Cre; SMNF7/F7, referred to here as SMA transgenic mice) are viable and display a phenotype similar to that described in human patients suffering from the severe types of spinal muscular atrophy (Frugier T., Tiziano F D et al. Hum Mol Genet. 2000, 9, 849-858.)
A pre-clinical study has been carried out on transgenic mouse model of SMA in the severe modelSMN^F7/F7; NSE-Cre with Olesoxime to test for signs of possible efficacy to treats SMA patients.
Endpoint scores included survival (daily observation), body weight (animals were weighed 3 times/week).
Olesoxime (powder) was mixed with Cremophore EL (SIGMA C5135), absolute ethanol (CARLO ERBA RPE 414571) and DMSO (ALLDRICH 27685-5) ([…], respective % of the final volume). After complete dissolution, PBS (phosphate buffered saline) was added (85% of the final volume). Solutions were prepared in volumes sufficient for 3 days; vehicle placebo consisted in the same mixture of excipients without the active principle. Daily treatment (subcutaneous injections, 10 ml/kg) started from P21 to death. Effected mice were killed by cervical dislocation when they became unable to feed, according to ethical considerations or around 45 days for control mice. Experiments were performed blind.
“log Rank”, also called “Mantel-Haenszel” was the statistic test being used to compare the two survival curves. It is a type “Khi2” test that was already available in the library “survival” from R. software (http://lib.stat.cmu.edu/R/CRAN).
The test was applied simultaneously on the 3 groups of mice and for all five stages.
All the mice which died before day 26 were removed from the study. There were 8 in total.

Consider `CC(C)CCC[C@@H](C)[C@H]1CC[C@H]2[C@@H]3CCC4=CC(=NO)CC[C@]4(C)[C@H]3CC[C@]12C` [olesoxime, Cholest-4-en-3-one oxime], for which the motor function entry in data set [1] (SMA type II and III patients) is recorded as “demonstrated potential to maintain motor function”. In addition, the tolerability result in data set [1] (SMA type II and III patients aged 3 to 25 years) is on record as “well tolerated”. Besides, the “slope of linear exposure-response relationship (average trough concentration vs MFM D1+D2 score)” value in data set [2] (KPD model, relative standard error of 36%) is listed as 0.291 unit/ng/mL. In addition, the “plateau of effect in exposure-response relationship” value in data set [2] (at the dose of 10 mg) is reported as “did not reach a plateau”. In data set [3] (10 mg/kg daily s.c.), the “mice still alive at 40 days” value is 26% and the “animals still alive after 40 days” value is given as 25%. Moreover, in data set [3] (30 mg/kg daily s.c.), the “mice still alive at 40 days” value is recorded as 50% and the “animals still alive after 40 days” value is 45%. The “life span / survival” value in data set [3] (30 mg/kg/day s.c. from day 21 to death, log rank test p<0.05 vs vehicle) is on record as “significant increase in life span; also recorded: longer life span; also recorded: Improves Survival”. For the same compound, the body weight result in data set [3] (10 or 30 mg/kg daily s.c. vs vehicle) is on record as “no difference in body weight”.
